Measured values taken from patent US10285959B2, “Combination therapies using HDAC inhibitors” (priority 2005, dated 2019).

What was measured:
[1] = test system: HCT116 colon cancer xenograft; assay: HCT116 colon cancer subcutaneous xenograft model; format: in vivo, nu/nu mice
Experimental: The 5-FU dose was set at 15 mg/kg.
HCT116 colon cancer xenograph. Daily i.p. treatments with PXD101 (morning) and 5-FU (afternoon). Mean/SEM, n=10(9).

[2] = test system: P388 i.p. mouse leukemia tumour; assay: P388 mouse leukemia model, survival;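 further: female B6D1F1 mice implanted i.p. with P388 leukemia cells, Kaplan-Meier survival analysis, ILS% equals treated minus vehicle control median survival, divided by control median, times 100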
Experimental: P388 mouse leukemia cells were injected intrapertoneally (IP) into B6D1F1 female mice. […] Kaplan-Meier survival distribution graphs are shown for each combination.
The percentage Increased Life Span (ILS%) was calculated as the median survival (treatment group) minus median survival (vehicle control) divided by median survival (vehicle control) multiplied with 100:

Calu-3 = assay: Growth inhibition/proliferation, PXD101 with Tarceva (CellTiter-Glo); format: cell-based, human; conditions: wtEGFR
HCC-4006 = assay: Growth inhibition/proliferation, PXD101 with Tarceva; format: cell-based; conditions: mutant EGFR
[3] = test system: EGFR protein in A431 cells; assay: Western blot of EGFR protein levels; format: cell-based, human; conditions: 24 hours treatment
From the text: The blot was reprobed with an anti-actin antibody to control for lane loading.

diverse tumor cell lines = assay: Proliferation of tumor cell lines; format: cell-based
[4] = 5-FU(30) mg/kg/treat i.p. daily for 5 days starting day 3
[5] = PXD101(60) mg/kg/treat i.p. daily for 5 days starting day 3
[6] = PXD101(100) mg/kg/treat i.p. daily for 5 days starting day 3

Structure (SMILES): O=c1[nH]cc(F)c(=O)[nH]1 [5-FU, 5-fluorouracil]
- tumour growth inhibition ([1]; 5-FU 15 mg/kg): ineffective
- ILS % (Increased Life Span) [2, 4]: 60.0%
- Survival time, Max [2, 4]: 18
- Survival time, Median survival [2, 4]: 16
- Survival time, Min [2, 4]: 15
- Cumulative Survival ([2]; day 9, 5-FU (30)): 1
- Cumulative Survival ([2]; day 9, 5-FU (50)): 1.00
- Cumulative Survival ([2]; day 10, 5-FU (30)): 1
- Cumulative Survival ([2]; day 10, 5-FU (50)): 0.55
- Cumulative Survival ([2]; day 11, 5-FU (30)): 1
- Cumulative Survival ([2]; day 11, 5-FU (50)): 0.15
- Cumulative Survival ([2]; day 12, 5-FU (30)): 1
- Cumulative Survival ([2]; day 12, 5-FU (50)): 0.15
- Cumulative Survival ([2]; day 13, 5-FU (30)): 1
- Cumulative Survival ([2]; day 13, 5-FU (50)): 0.15
- Cumulative Survival ([2]; day 14, 5-FU (30)): 1
- Cumulative Survival ([2]; day 14, 5-FU (50)): 0.15
- Cumulative Survival ([2]; day 15, 5-FU (30)): 0.85
- Cumulative Survival ([2]; day 15, 5-FU (50)): 0.15
- Cumulative Survival ([2]; day 16, 5-FU (30)): 0.55
- Cumulative Survival ([2]; day 16, 5-FU (50)): 0.15
- Cumulative Survival ([2]; day 17, 5-FU (30)): 0.15
- Cumulative Survival ([2]; day 17, 5-FU (50)): 0.15
- Cumulative Survival ([2]; day 18, 5-FU (30)): 0
- Cumulative Survival ([2]; day 18, 5-FU (50)): 0.15
- Cumulative Survival ([2]; day 19, 5-FU (50)): 0.15
- Cumulative Survival ([2]; day 20, 5-FU (50)): 0.15
- Cumulative Survival ([2]; day 21, 5-FU (50)): 0.15
- Cumulative Survival ([2]; day 22, 5-FU (50)): 0.15
- Cumulative Survival ([2]; day 23, 5-FU (50)): 0.15
- Cumulative Survival ([2]; day 24, 5-FU (50)): 0

Structure (SMILES): C#Cc1cccc(Nc2ncnc3cc(OCCOC)c(OCCOC)cc23)c1 [Tarceva ®]
- responsiveness of cells to Tarceva (Calu-3): Calu-3 (wtEGFR; moderately responsive to Tarceva ®)
- responsiveness of cells to Tarceva (HCC-4006): HCC-4006 (mutant EGFR; strongly responsive to Tarceva ®)

Structure (SMILES): O=C(/C=C/c1cccc(S(=O)(=O)Nc2ccccc2)c1)NO [PXD-101]
- level of EGFR protein [3]: apparently decreases the level of EGFR protein
- IC50 (diverse tumor cell lines): 80 to 2430 nM
- tumour growth inhibition ([1]; PXD-101 60 and 100 mg/kg q1d x5/week for 2 weeks): significant tumour growth inhibition
- ILS % (Increased Life Span) [2, 5]: 30.0%
- Survival time, Max [2, 5]: 14
- Survival time, Median survival [2, 5]: 13
- Survival time, Min [2, 5]: 12
- ILS % (Increased Life Span) [2, 6]: 20.0%
- Survival time, Max [2, 6]: 14
- Survival time, Median survival [2, 6]: 12
- Survival time, Min [2, 6]: 11
- Cumulative Survival ([2]; day 9, PXD101 (60)): 1
- Cumulative Survival ([2]; day 9, PXD101 (100)): 1
- Cumulative Survival ([2]; day 10, PXD101 (60)): 1
- Cumulative Survival ([2]; day 10, PXD101 (100)): 1
- Cumulative Survival ([2]; day 11, PXD101 (60)): 1
- Cumulative Survival ([2]; day 11, PXD101 (100)): 0.85
- Cumulative Survival ([2]; day 12, PXD101 (60)): 0.70
- Cumulative Survival ([2]; day 12, PXD101 (100)): 0.43
- Cumulative Survival ([2]; day 13, PXD101 (60)): 0.15
- Cumulative Survival ([2]; day 13, PXD101 (100)): 0.43
- Cumulative Survival ([2]; day 14, PXD101 (60)): 0
- Cumulative Survival ([2]; day 14, PXD101 (100)): 0.15
- Cumulative Survival ([2]; day 15, PXD101 (100)): 0

Structure (SMILES): Nc1nc(F)nc2c1ncn2[C@@H]1O[C@H](CO)[C@@H](O)[C@@H]1O [Fludarabin, Fludarabine]
- Cumulative Survival ([2]; day 8, Fludarabin (50)): 1.00
- Cumulative Survival ([2]; day 9, Fludarabin (50)): 0.85
- Cumulative Survival ([2]; day 10, Fludarabin (50)): 0.55
- Cumulative Survival ([2]; day 11, Fludarabin (50)): 0.40
- Cumulative Survival ([2]; day 12, Fludarabin (50)): 0.40
- Cumulative Survival ([2]; day 13, Fludarabin (50)): 0.40
- Cumulative Survival ([2]; day 14, Fludarabin (50)): 0.40
- Cumulative Survival ([2]; day 15, Fludarabin (50)): 0.30
- Cumulative Survival ([2]; day 16, Fludarabin (50)): 0.30
- Cumulative Survival ([2]; day 17, Fludarabin (50)): 0.15
- Cumulative Survival ([2]; day 18, Fludarabin (50)): 0.15
- Cumulative Survival ([2]; day 19, Fludarabin (50)): 0

Structure (SMILES): O=C1[O][Pt]2([NH][C@@H]3CCCC[C@H]3[NH]2)[O]C1=O [Oxali, Oxaliplatin]
- Cumulative Survival ([2]; day 9, Oxali (5)): 0.45
- Cumulative Survival ([2]; day 10, Oxali (5)): 0
